The source made the active and inactive calls. The rule behind the calls is not given here.
How the values were obtained:
Rattus norvegicus [1] = assay: Anxiolytic activity in po dosed CD rats assessed as suppression of conditioned paw licking administered twice per day for 14 days measured after 2 hrs of last dose; assay type: functional
Cavia porcellus [2] = organism: Cavia porcellus; assay: Anxiolytic activity in Dunkin-Hartley guinea pig pup assessed as reduction in number of vocalization produced due to separation measured after 2 hrs; assay type: functional
Cytochrome P450 3A4 = Cytochrome P450 3A4 (Homo sapiens, UniProt P08684); assay: Inhibition of CYP3A4; assay type: ADME
Cytochrome P450 3A4, sequence (P08684 whole entry): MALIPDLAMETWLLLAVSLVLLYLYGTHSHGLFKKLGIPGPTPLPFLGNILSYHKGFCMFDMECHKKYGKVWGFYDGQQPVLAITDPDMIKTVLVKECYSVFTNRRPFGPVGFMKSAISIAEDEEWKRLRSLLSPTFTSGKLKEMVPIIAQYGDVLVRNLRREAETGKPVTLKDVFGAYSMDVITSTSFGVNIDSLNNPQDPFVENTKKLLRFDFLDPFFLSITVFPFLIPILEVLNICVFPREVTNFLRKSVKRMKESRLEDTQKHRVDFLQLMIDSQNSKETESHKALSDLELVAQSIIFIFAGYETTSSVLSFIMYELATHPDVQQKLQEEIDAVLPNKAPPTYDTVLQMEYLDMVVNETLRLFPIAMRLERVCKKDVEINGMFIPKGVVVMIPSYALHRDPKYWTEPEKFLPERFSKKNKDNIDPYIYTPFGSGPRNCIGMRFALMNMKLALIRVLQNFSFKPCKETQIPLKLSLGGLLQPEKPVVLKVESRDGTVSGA

Rattus norvegicus [3] = assay: Volume of distribution at steady state in rat at 3 mg/kg, po; assay type: ADME, organism-based; set-up: dose 3 mg/kg, route oral; conditions: in vivo
[4] = Clearance in human hepatocytes measured per 10^6 cells; assay type: ADME, cell-based, Liver, Hepatocyte
[5] = Half life in rat at 3 mg/kg, po; assay type: ADME, organism-based; set-up: dose 3 mg/kg, route oral; conditions: in vivo
[6] = AUC (0 to 24 hrs) in rat at 3 mg/kg, po; assay type: ADME, organism-based; set-up: time < 24 hr, dose 3 mg/kg, route oral; conditions: plasma
Cytochrome P450 2C9 [7] = biological target: T1, Cytochrome P450 2C9 (Homo sapiens, UniProt P11712); assay: Inhibition of CYP2C9 co-incubated with substrate; assay type: ADME
T1 sequence (P11712 whole entry): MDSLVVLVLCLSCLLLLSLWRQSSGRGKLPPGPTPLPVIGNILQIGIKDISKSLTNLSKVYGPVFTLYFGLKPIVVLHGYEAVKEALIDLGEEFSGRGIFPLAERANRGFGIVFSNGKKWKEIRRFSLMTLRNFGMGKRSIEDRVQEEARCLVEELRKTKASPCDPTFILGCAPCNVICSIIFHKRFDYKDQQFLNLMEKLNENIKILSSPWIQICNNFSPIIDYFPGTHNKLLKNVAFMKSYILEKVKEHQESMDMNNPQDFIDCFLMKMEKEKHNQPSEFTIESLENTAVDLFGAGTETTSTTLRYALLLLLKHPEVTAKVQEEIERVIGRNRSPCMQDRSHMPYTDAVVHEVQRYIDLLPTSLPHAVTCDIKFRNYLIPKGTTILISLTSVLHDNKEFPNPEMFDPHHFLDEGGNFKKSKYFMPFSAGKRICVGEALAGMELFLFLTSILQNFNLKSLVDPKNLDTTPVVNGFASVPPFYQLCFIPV

Cavia porcellus [8] = assay: Antitussive activity against capsaicin-induced cough in po dosed Hartley guinea pig model after 2 hrs; assay type: functional
[9] = Clearance in rat at 3 mg/kg, po; assay type: ADME, organism-based; set-up: dose 3 mg/kg, route oral; conditions: in vivo
Cytochrome P450 2C9 [10] = biological target: T1, Cytochrome P450 2C9; assay: Inhibition of CYP2C9 pre-incubated before addition of substrate; assay type: ADME
[11] = Cmax in rat at 3 mg/kg, po; assay type: ADME, organism-based; set-up: dose 3 mg/kg, route oral; conditions: in vivo
Cytochrome P450 2D6 = Cytochrome P450 2D6 (Homo sapiens, UniProt P10635); assay: Inhibition of CYP2D6; assay type: ADME
Cytochrome P450 2D6, sequence (P10635 whole entry): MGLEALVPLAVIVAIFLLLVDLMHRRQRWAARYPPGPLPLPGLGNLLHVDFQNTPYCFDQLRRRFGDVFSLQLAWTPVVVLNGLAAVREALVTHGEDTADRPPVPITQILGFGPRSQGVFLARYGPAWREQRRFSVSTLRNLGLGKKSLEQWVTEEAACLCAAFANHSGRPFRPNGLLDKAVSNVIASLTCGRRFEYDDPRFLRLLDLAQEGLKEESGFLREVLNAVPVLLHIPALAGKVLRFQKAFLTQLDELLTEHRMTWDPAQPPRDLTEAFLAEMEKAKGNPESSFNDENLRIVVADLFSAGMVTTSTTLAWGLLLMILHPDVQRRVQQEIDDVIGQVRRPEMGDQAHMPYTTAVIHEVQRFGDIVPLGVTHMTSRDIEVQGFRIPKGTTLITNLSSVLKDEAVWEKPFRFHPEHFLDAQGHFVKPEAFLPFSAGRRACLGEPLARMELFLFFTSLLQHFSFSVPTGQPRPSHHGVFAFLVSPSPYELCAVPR

Rattus norvegicus [12] = assay: Anxiolytic activity in po dosed CD rats assessed as suppression of conditioned paw licking administered twice per day for 14 days measured after 2 hrs of last dose in presence of […]; assay type: functional, organism-based
[13] = Oral bioavailability in rat at 3 mg/kg; assay type: ADME, organism-based; conditions: in vivo

For `NC(=O)C1(c2ccccc2)CC2CCC(C1)N2C(c1ccccc1Cl)c1ccccc1Cl` (stereo not given), the ED50 (Rattus norvegicus [1]) was 1.4 mg/kg, the ED50 (Cavia porcellus [2]) was 0.4 mg/kg and the IC50 (Cytochrome P450 3A4) was greater than 30 µM. The Vdss (Rattus norvegicus [3]) was 9.1 L/kg, the hepatocyte CLint [4] was 3 µL/min/1e6 cells and the half-life [5] was 1.8 h. The AUC(0-t) at 24 h [6] was 0.54 µM·h, the IC50 (Cytochrome P450 2C9 [7]) was 8 µM and the ED50 (Cavia porcellus [8]) was 0.3 mg/kg. It also gave a CL/F [9] of 73 mL/min/kg, an IC50 (Cytochrome P450 2C9 [10]) of 19 µM and a Cmax [11] of 80 nM. For the same compound, the IC50 (Cytochrome P450 2D6) was greater than 30 µM, the Activity (Rattus norvegicus [12]) was “inactive” and the bioavailability [13] was 37%.

Source: ChEMBL document CHEMBL1138606, “The discovery of tropane derivatives as nociceptin receptor ligands for the management of cough and anxiety” (Bioorg Med Chem Lett, 2009)
